According to US20120178796A1, “SPLICE VARIANTS” (priority 2009, published 2012):

Key:
Format in all cases: cell-based, human
p53 [1] = test: Immunoblot of p53 protein and p53 acetylation after siRNA silencing or stress, ARPE19 cells; conditions: for p53 induction in response to DNA damaging agent: agent alone
Procedure: (§1) Isogenic colorectal carcinoma cell lines HCT116 p53+/+ and HCT116 p53-/- were cultured in DMEM supplemented with 10% FBS. Non-cancer retinal epithelial cell line ARPE-19 was cultured in DMEM:F12 supplemented with 10% FBS. Cells used in experiments were low passage number (not >8 splits from nitrogen). Transfection of siRNA were as described (Ford et al., 2005; Ford et al., 2008). SIRT1 FL siRNA (targeting SIRT1 FL and SIRT1 ΔEx3-4) is sited within exon8; SIRT1 ΔEx8 siRNA (targeting SIRT1 ΔEx8 and SIRT1 ΔEx3-4-8) is located across the alternate exon7-exon9 splice. Sequences and locations of siRNAs are detailed in the Supplementary Table 3.

[2] = system: ARPE19 retinal epithelial cells; test: Morphological neuronal differentiation of ARPE19 cells (phase contrast micrographs); conditions: for morphological differentiation towards neuronal phenotype after siRNA silencing: 72 h to 96 hr after siRNA
Procedure: as §1
(§2) Digital phase contrast cell images were captured on an Axiovert Cell Observer (Zeiss). Quantification of apoptosis was performed using an AnnexinV-Fluos kit (Roche) according to the manufacturer's instructions, with analysis by flow cytometry on a FACSCalibur (BD) using CellQuest software.
Cells were treated for 48 h with 1 μM fenretinide in OPTIMEM media 24 h following siRNA transfection. Before addition of fenretinide cells were first washed with OPTIMEM to remove serum. 48 h later fenretinide was removed by washing with OPTIMEM and normal growth media with serum was added. Cells were then monitored by microscopy for a further 48 h.

[3] = system: ARPE19 non-cancer epithelial cells; test: Apoptosis after siRNA silencing, ARPE19 cells
Procedure: as §1, §2

[4] = system: HCT116 colorectal cancer cells; test: Apoptosis after siRNA silencing (micrographs, annexin V staining), HCT116 cells; conditions: single dose of siRNA, basal conditions
Procedure: as §1, §2

p53 [5] = test: Immunoblot of p53 protein and p53 acetylation after siRNA silencing, HCT116 cells
Procedure: as §1

SIRT1 Δ2-9 mRNA = SIRT1 Δ2-9 mRNA knock-down by RT-PCR in ARPE19 and HCT116 cells
Procedure: as §1
Standard RT-PCR was performed on a DNA Engine Dyad (MJ Research) using a One-Step RT-PCR kit (Qiagen). Reaction endpoints were electrophoresed on agarose gels, visualised on a UV transilluminator (Appligene) and images captured with a DS34 camera (Polaroid). […] Total RNA from cell experiments was isolated using an RNeasy kit (Qiagen) and quantitated by UV spectroscopy (GeneSpecV). For qRT-PCR, reactions were run in quadruplicate on a DNA Engine Opticon (BioRad) using a QuantiTect SYBR Green RT-PCR kit (Qiagen). […]
In order to look at the functional significance of SIRT1 Δ2-9, a siRNA was designed to the splice junction region of exon-2 and exon-9. […] These changes were also confirmed by quantitative RT-PCR (FIG. 20E). […]

| Compound | p53 induction in response to DNA damaging agent (p53 [1]) | induction of apoptosis [4] | morphological differentiation towards neuronal phenotype after siRNA silencing [2] | accumulation of total p53 protein (p53 [5]; HCT116 cells, basal conditions) | further results |
| --- | --- | --- | --- | --- | --- |
| COc1cc([C@@H]2c3cc4c(cc3[C@@H](O[C@@H]3O[C@@H]5CO[C@@H](C)O[C@H]5[C@H](O)[C@H]3O)[C@H]3COC(=O)[C@H]23)OCO4)cc(OC)c1O [Etoposide, reference compound] | induced substantially | – | – | – | – |
| O=c1[nH]cc(F)c(=O)[nH]1 [SFU, reference compound] | induced substantially | – | – | – | – |
| CC1=C(/C=C/C(C)=C/C=C/C(C)=C/C(=O)Nc2ccc(O)cc2)C(C)(C)CCC1 [fenretinide, reference compound] | – | – | – | – | neuronal differentiation induced by compound ([2]; 1 μM, 48 h, OPTIMEM): can be induced |
| ACUUUGCUGUAACCCUGUA [SIRT1 FL siRNA] | – | induced massive apoptosis | induces neuronal differentiation | approximately 10 fold | induction of apoptosis [3]: fails to induce apoptosis; increase of p53 acetylation levels (p53 [5]; HCT116 cells, basal conditions): more than 50 fold |
| CCUUCUGUUCGUUCUUGUG [SIRT1 Δ2-9 siRNA] | – | – | – | – | SIRT1 Δ2-9 mRNA expression (SIRT1 Δ2-9 mRNA): almost completely abolished; p53 protein level (Western blot) (p53 [1]): significantly reduced; stress-induced p53 induction in siRNA treated samples (p53 [1]; Etoposide, UV or 5FU in combination with siRNA): attenuated; p53 protein level (Western blot) (p53 [5]; HCT116 p53+/+ cells): significantly reduced |
| UAAUUCCAAGUAAUCAGUA [SIRT1 ΔEx8 siRNA] | – | did not induce apoptosis | did not induce morphological differentiation | A similar effect was not observed | – |
